Earlier results on two substances are cited in article PMC7530097 (Chemical communications (Cambridge, England), 2020).

One may read the IC50 as the concentration at which inhibition is half-maximal.

Data set [1] has as its target Group-II agr subgroup of S. aureus (Staphylococcus aureus, UniProt O33587). Particulars: read-out: IC50 (95% CI) Group-II; β-lactamase reporter cell assay; ref [6].
The target of data set [2] is Group-III agr subgroup of S. aureus (Staphylococcus aureus, UniProt O33590). Particulars: read-out: IC50 (95% CI) Group-III; β-lactamase reporter cell assay; ref [6].
Another data set deals with AgrC. Particulars: ref [25].

Regarding AIP-I, the IC50 in data set [1] was 25 nM; in data set [2], 3 nM.

Solonamide B: the “inhibition of AgrC” value in the data set with AgrC is recorded as “competitively inhibit AgrC”.
